Assay results: patent US20240390413A1, “POLYMERS OBTAINED BY THE REACTION OF A PHENOLIC COMPOUND AND A CARBONYL COMPOUND AS ANTI-SARS-COV-2 AGENTS” (BASF SE, priority 2021, published 2024)
Like-named read-outs stand apart in the source and are kept apart here.

Assays:
SARS-CoV-2 [1] = format: cell-based; conditions: Calu3 cells; formulations A-1 to A-6 (1,000 to 0 μg/ml condensation product); Camostat 100 μM or 10 μM as control
SARS-CoV-2 [2] = format: cell-based; conditions: precision cut human lung slices; 1, 10 or 100 μg/ml; water control

Compound: CN(C)C(=O)COC(=O)Cc1ccc(OC(=O)c2ccc(NC(=N)N)cc2)cc1 [Camostat]
- viral titer (SARS-CoV-2 [1]): reduction observed
- viral titer (SARS-CoV-2 [2]): reduced the viral titer in a dose-dependent manner
